Molecular target: T1, ArcD1 (Lactococcus cremoris, UniProt A2RNI5)
T1 construct: plasmid pNZarcD1, nisin-inducible; expressed in L. lactis deltaarcD1D2 cells
T1 sequence (A2RNI5 1-526): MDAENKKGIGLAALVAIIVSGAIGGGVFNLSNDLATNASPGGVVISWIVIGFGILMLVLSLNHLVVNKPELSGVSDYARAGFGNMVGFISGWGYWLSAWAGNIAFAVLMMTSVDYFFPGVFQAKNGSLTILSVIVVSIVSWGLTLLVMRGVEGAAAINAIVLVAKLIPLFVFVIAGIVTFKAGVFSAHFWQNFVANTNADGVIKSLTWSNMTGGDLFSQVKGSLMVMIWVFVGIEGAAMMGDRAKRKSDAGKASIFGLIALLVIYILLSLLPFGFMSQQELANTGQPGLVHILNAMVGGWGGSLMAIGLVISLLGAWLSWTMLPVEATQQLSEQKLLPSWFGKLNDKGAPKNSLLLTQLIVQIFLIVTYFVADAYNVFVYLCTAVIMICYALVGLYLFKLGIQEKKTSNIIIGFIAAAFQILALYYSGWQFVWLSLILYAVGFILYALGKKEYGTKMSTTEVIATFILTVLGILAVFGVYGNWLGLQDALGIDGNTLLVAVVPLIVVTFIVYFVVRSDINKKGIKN
Assay: inhibition of […]L-ornithine uptake in resting cells
Assay type: cell-based
Conditions: read-out: ArcD1 / KI ^b (μm)

- Ki: 529 ± 135 µM
Structure (SMILES): NC(=O)NCCC[C@H](N)C(=O)O [L‐Citr, L‐citrulline]
